Assay results reported in PubChem BioAssay (NCI).
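Growth conditions: 96-well plates. Treatment: test compound, 48 hours, 5 concentrations. Analysis: linear interpolation between bracketing concentrations; unreached endpoints set to highest concentration. TGI denotes the concentration required for complete inhibition of growth.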

Tests used:
Assay in all cases: DTP human tumour cell line panel, 48 h
[1] = tested on: DLD-1 colon
[2] = tested on: DMS 114 small cell lung
[3] = tested on: DMS 273 small cell lung
[4] = tested on: LXFL 529 NSCLC
[5] = tested on: M19-MEL melanoma
[6] = tested on: RXF-631 renal
[7] = tested on: SNB-78 CNS
[8] = tested on: XF 498 CNS

| Compound | TGI [1] | TGI [2] | TGI [3] | TGI [4] | TGI [5] | TGI [6] | TGI [7] | TGI [8] |
| --- | --- | --- | --- | --- | --- | --- | --- | --- |
| O=C(c1ccc(O)cc1)C1c2c3c(cc(O)c2C(c2ccc(O)cc2)C1c1cc(O)cc(O)c1)OC(c1ccc(O)cc1)C3c1cc2c(cc1O)OC(c1ccc(O)cc1)C2c1cc(O)cc(O)c1 (stereo not given) | > 12.5 µM | > 12.5 µM | > 12.5 µM | > 12.5 µM | > 12.5 µM | – | – | – |
| COc1cc(C[S+]2CCCC2)c(SC)cc1C[S+]1CCCC1 | > 100 µM | > 100 µM | – | > 100 µM | > 100 µM | > 100 µM | > 100 µM | > 100 µM |
| C[C@]12C=CC(=O)C=C1CC[C@H]1[C@@H]3C[C@@H](O)[C@](O)(C(=O)CO)[C@@]3(C)C[C@H](O)[C@@]12F | > 100 µM | > 100 µM | > 100 µM | > 100 µM | > 100 µM | > 100 µM | > 100 µM | > 100 µM |
